Laboratory results reported in patent US11655239B2 (SHANGHAI INSTITUTE OF MATERIAL MEDICA, CHINESE ACADEMY OF …, priority 2019, dated 2023).

Columns and labels:
Src = Src (Homo sapiens (Human), UniProt P12931); assay: Enzyme selectivity test (ELISA), Src; format: biochemical
Method: (§1) 1) Enzyme reaction substrate Poly(Glu, Tyr) 4:1 was diluted to 20 μg/mL with potassium-free PBS (10 mM sodium phosphate buffer, 150 mM NaCl, pH 7.2-7.4), and the microtiter plate was coated with 125 μL/well and placed at 37° C. for 12-16 hours of reaction. The liquid in the well was discard. The plate was washed three times with T-PBS (potassium-free PBS containing 0.1% Tween-20, 200 μL/well), 5 minutes each time. The ELISA plate was dried in an oven at 37° C. for 1 to 2 hours.
(§2) 2) Reaction buffer (50 mM HEPES pH 7.4, 50 mM MgCl2, 0.5 mM MnCl2, 0.2 mM Na3VO4, 1 mM DTT) diluted ATP solution (49 μL) was added to each well, 1 μL of the compound to be tested was added to each well, and then 50 μL of DDR2 kinase domain recombinant protein diluted in the reaction buffer was added to start the reaction. Two control wells without ATP were set in each experiment. The plate placed on a shaker (100 rpm) at 37° C. for 1 hour of reaction. The liquid in the well was discarded and the plate was washed three times with T-PBS.
(§3) 3) Antibody PY99 dilution solution (the antibody was diluted 1:500 with T-PBS containing BSA 5 mg/mL) was added at 100 μL/well, and shaken on a shaker at 37° C. for 0.5 hour of reaction. The liquid in the well was discarded and the plate was washed three times with T-PBS.
(§4) 4) Horseradish peroxidase labeled goat anti-murine secondary antibody dilution solution (the antibody is diluted 1:2000 with T-PBS containing BSA 5 mg/ml) was added at 100 μL/well, and shaken on a shaker at 37° C. for 0.5 hour of reaction. The liquid in the well was discarded and the plate was washed three times with T-PBS.
(§5) 5) 2 mg/ml of OPD color developing solution [diluted with 0.1 M citric acid-sodium citrate buffer (pH=5.4) containing 0.03% H2O2] was added at 100 μL/well and reacted for 1 to 10 minutes at 25° C. in the dark.
(§6) 6) 2M H2SO4 was added at 50 μL/well to stop the reaction, and a tunable wavelength microplate reader VERSAmax was used for reading at a wavelength of 490 nm.
(§7) The IC50 value was obtained by four-parameter regression using the software that came with the microplate reader. […]

AXL = AXL (Homo sapiens (Human), UniProt P30530); assay: Enzyme selectivity test (ELISA), AXL; format: biochemical
Chain of AXL (P30530 26-894, species assumed): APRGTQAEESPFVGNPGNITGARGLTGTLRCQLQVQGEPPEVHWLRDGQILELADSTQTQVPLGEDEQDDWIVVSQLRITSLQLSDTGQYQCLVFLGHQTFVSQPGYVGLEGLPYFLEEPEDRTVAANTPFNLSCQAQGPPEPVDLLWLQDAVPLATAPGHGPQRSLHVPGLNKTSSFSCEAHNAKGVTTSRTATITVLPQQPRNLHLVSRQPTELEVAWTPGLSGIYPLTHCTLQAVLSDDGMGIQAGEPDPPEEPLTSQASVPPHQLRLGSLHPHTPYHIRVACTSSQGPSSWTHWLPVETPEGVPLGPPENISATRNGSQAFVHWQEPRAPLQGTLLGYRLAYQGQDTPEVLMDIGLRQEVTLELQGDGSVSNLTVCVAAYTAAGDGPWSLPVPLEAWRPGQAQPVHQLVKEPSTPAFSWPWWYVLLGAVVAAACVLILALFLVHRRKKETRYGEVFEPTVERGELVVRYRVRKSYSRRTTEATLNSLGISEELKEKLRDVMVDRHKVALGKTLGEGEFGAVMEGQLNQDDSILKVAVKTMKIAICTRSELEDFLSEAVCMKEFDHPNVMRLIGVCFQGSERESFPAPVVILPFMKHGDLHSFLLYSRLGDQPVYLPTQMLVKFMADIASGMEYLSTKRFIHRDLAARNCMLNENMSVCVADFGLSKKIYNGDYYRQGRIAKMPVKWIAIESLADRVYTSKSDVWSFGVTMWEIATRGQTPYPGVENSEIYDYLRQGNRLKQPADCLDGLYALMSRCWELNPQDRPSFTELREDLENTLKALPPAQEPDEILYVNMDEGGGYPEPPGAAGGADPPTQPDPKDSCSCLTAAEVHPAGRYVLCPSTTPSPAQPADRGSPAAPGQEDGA
Method: as §1, §2, §3, §4, §5, §6, §7

Met = Met (Homo sapiens (Human), UniProt P08581); assay: Enzyme selectivity test (ELISA), Met; format: biochemical
Chain of Met (P08581 25-1390): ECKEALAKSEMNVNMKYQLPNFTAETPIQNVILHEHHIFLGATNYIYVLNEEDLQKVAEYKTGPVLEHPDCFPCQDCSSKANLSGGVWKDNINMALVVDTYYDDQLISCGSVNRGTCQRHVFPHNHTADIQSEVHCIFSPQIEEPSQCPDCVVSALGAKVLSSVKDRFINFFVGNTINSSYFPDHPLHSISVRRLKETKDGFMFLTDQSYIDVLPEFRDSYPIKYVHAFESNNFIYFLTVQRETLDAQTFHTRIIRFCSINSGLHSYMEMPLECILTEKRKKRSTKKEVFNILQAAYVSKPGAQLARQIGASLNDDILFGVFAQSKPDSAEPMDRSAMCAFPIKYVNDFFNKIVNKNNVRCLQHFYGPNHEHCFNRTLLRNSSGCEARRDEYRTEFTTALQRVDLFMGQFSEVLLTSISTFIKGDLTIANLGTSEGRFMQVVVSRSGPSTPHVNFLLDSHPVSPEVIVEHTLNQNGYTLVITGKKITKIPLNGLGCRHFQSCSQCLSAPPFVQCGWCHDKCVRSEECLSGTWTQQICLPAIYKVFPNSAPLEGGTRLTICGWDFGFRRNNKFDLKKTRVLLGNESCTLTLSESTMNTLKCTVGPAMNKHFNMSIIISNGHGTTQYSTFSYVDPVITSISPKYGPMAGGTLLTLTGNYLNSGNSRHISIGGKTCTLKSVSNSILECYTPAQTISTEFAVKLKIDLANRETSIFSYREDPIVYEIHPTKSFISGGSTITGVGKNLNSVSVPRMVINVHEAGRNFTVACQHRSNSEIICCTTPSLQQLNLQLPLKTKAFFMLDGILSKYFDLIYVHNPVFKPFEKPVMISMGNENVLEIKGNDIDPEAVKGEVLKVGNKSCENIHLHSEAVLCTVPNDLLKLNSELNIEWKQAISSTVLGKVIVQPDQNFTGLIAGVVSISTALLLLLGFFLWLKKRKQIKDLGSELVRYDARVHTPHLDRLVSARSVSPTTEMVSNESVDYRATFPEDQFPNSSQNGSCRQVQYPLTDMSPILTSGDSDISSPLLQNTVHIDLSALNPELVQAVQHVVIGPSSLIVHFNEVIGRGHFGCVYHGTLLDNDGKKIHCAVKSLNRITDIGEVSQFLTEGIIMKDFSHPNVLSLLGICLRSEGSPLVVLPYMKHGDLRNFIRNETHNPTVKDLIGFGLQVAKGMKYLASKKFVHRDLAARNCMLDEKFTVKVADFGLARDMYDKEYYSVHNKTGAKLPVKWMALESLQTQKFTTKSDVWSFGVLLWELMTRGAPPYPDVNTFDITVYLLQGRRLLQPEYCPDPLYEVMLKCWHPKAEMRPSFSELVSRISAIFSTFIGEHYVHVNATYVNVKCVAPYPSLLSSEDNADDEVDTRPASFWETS
Method: as §1, §2, §3, §4, §5, §6, §7

[1] = test system: mouse model of BLM-induced lung injury; assay: Histopathological evaluation of lung sections, H&E staining; format: in vivo; details: Effect example 4; mice; S15 30, 60, 90 mg/kg, Nintedanib 30 mg/kg, oral qd 12 days
Method: Experimental objective: This group of experiments aimed to investigate the therapeutic potential of the compound S15 in acute lung injury and inflammation induced by bleomycin (BLM).
Experimental grouping (8 mice per group):
Model group (BLM): the mice received BLM (1.7 U/kg) via intratracheal instillation;
Compound S15 group (S15): this group was divided into three dose groups, namely 30, 60 and 90 mg/kg;
Positive control group (Nintedanib): Nintedanib administration group;
Negative control group (Control): only saline was used.
1) Material acquisition: The fresh tissue was fixed in 4% paraformaldehyde for more than 24 hours. The tissue was removed from the fixative solution and trim the tissue at the target site. The trimmed tissue was marked and placed in the dehydration box for later use.
2) Dehydration: The dehydration box was put in the dehydrator and different concentration gradients of ethanol was used sequentially for dehydration. 75% ethanol (4 hours), 85% ethanol (2 hours), 90% ethanol (2 hours), 95% ethanol (1 hour), absolute ethanol I (30 minutes), absolute ethanol II (30 minutes), alcohol benzene (5-10 minutes), xylene I (5-10 minutes), xylene II (5-10 minutes), wax I (1 hour), wax II (1 hour), wax III (1 hour).
3) Embedment: The wax melted at high temperature was put into the embedding frame; before the wax was cooled and solidified, the tissue was taken out of the dehydration box, put into the embedding frame according to the requirements of the embedding surface, marked and cooled at −20° C. After completely solidified, the wax block was removed from the embedding frame and trimmed.
4) Section: The trimmed wax block was put on a paraffin microtome for sectioning. The section thickness was about 4 μm. The sections were floated on warm water at 40° C. of the flotation workstation and flatten. A glass slide was used to lift the tissue from the warm water, and put into a 60° C. oven for dryness. After the water was dried and the wax melted, the glass slide was taken out and stored at ambient temperature for later use. […]

Chain of Src (P12931 whole entry, looked up, species assumed): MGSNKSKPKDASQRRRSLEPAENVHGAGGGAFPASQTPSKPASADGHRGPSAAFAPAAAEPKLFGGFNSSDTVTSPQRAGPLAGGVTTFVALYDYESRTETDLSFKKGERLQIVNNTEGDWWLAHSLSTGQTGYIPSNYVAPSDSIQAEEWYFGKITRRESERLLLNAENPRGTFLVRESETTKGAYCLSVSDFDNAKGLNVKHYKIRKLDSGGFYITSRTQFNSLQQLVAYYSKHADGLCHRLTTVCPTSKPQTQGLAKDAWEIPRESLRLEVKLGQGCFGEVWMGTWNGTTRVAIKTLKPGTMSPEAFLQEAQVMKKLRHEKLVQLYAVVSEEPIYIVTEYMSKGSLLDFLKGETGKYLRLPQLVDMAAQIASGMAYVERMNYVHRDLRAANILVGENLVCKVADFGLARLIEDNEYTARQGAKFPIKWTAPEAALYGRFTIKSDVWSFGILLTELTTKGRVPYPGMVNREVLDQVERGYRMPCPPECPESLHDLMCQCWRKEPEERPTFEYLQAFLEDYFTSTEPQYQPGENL

O=C(Nc1cccc(C(F)(F)F)c1)c1ccc(C2CC2)c(-c2ccc3nc(Nc4cnn(C5CC5)c4)ncc3c2)c1 [Compound S15, 4-cyclopropyl-3-(2-((1-cyclopropyl-1H-pyrazol-4-yl)amino)quinazolin-6-yl)-N-(3-(trifluoromethyl)phenyl)benzamide]
IC50 (Src): > 100 nM
IC50 (AXL): > 1000 nM
IC50 (Met): > 1000 nM
BLM-induced lung injury, H&E staining [1]: improved significantly
